Results from the supplement of paper PMC13380429.

How the values were obtained:
Conditions in all cases: 72 h
Caco-2 [1] = assay: cell viability relative to DMSO; higher = less toxic
Calu-3 [2] = assay: as above
HepG2 [3] = assay: as above
U2OS [4] = assay: as above
Vero E6 [5] = assay: as above
Caco-2 [6] = assay: relative viability EC50 (midpoint between 100% and the lowest measured viability); higher = less toxic
Calu-3 [7] = assay: as above
HepG2 [8] = assay: as above
U2OS [9] = assay: as above
Vero E6 [10] = assay: as above
Caco-2 [11] = assay: drug sensitivity score (DSS) for viability; higher = more toxic; extreme values may be limits of the assay
Calu-3 [12] = assay: as above
HepG2 [13] = assay: as above
U2OS [14] = assay: as above
Vero E6 [15] = assay: as above

Structure (SMILES)	cell viability (Caco-2 [1]; 1 nM) [%]	cell viability (Caco-2 [1]; 10 nM) [%]	cell viability (Caco-2 [1]; 100 nM) [%]	cell viability (Caco-2 [1]; 1000 nM) [%]	cell viability (Caco-2 [1]; 10000 nM) [%]	cell viability (Calu-3 [2]; 1 nM) [%]	cell viability (Calu-3 [2]; 10 nM) [%]	cell viability (Calu-3 [2]; 100 nM) [%]	cell viability (Calu-3 [2]; 1000 nM) [%]	cell viability (Calu-3 [2]; 10000 nM) [%]	cell viability (HepG2 [3]; 1 nM) [%]	cell viability (HepG2 [3]; 10 nM) [%]	cell viability (HepG2 [3]; 100 nM) [%]	cell viability (HepG2 [3]; 1000 nM) [%]	cell viability (HepG2 [3]; 10000 nM) [%]	cell viability (U2OS [4]; 1 nM) [%]	cell viability (U2OS [4]; 10 nM) [%]	cell viability (U2OS [4]; 100 nM) [%]	cell viability (U2OS [4]; 1000 nM) [%]	cell viability (U2OS [4]; 10000 nM) [%]	cell viability (Vero E6 [5]; 1 nM) [%]	cell viability (Vero E6 [5]; 10 nM) [%]	cell viability (Vero E6 [5]; 100 nM) [%]	cell viability (Vero E6 [5]; 1000 nM) [%]	cell viability (Vero E6 [5]; 10000 nM) [%]	relative viability EC50 (Caco-2 [6]) [µM]	relative viability EC50 (Calu-3 [7]) [µM]	relative viability EC50 (HepG2 [8]) [µM]	relative viability EC50 (U2OS [9]) [µM]	relative viability EC50 (Vero E6 [10]) [µM]	drug sensitivity score (Caco-2 [11])	drug sensitivity score (Calu-3 [12])	drug sensitivity score (HepG2 [13])	drug sensitivity score (U2OS [14])	drug sensitivity score (Vero E6 [15])
COc1ccc(CCN(C)CCCC(C#N)(c2cc(OC)c(OC)c(OC)c2)C(C)C)cc1OC (stereo not given) [gallopamil]	91.3	91.5	92.1	91.6	96	94.1	104	97	92.2	104	96.8	103	98.3	101	106	94	99.7	96.4	97.3	99.3	101	97.3	96.9	102	106	> 10	> 10	> 10	> 10	> 10	0	0	0	0	0
OCc1ccc(O[C@@H]2O[C@H](CO)[C@@H](O)[C@H](O)[C@H]2O)cc1 [gastrodin]	106	95.9	107	92	106	108	94.1	94.2	110	104	99.1	104	104	107	117	97.7	99.9	100	99.7	98.1	95.4	99.6	95.1	92.1	95.3	> 10	> 10	> 10	> 10	> 10	0	0	0	0	0
Cc1cc(O)c2c(=O)c3c(O)cc(O)c4c5c(O)cc(O)c6c(=O)c7c(O)cc(C)c8c1c2c(c34)c(c78)c65 [hypericin]	104	101	104	99.4	98.3	106	101	94	110	79.7	108	106	103	101	81.9	102	94.6	91.2	96.2	77.1	96.3	91.3	101	80.7	95.7	> 10	> 10	> 10	> 10	> 10	0	0.3	0.4	1.4	0
CCc1cc2c(cc1CC)CC(NC[C@H](O)c1ccc(O)c3[nH]c(=O)ccc13)C2 [indacaterol]	89.7	97	101	94.8	96.4	112	94.2	112	101	91.5	121	115	98.4	115	81	106	100	104	95.6	95.4	96.8	94.3	96.8	96.3	94.2	> 10	> 10	> 10	> 10	> 10	0	0	0.2	0	0
CC(C)NNC(=O)c1ccncc1 [iproniazid]	93.6	95.9	98.9	90.8	103	93.2	97.9	94.6	107	99.6	108	96.4	108	104	105	96.6	98.9	97.4	103	104	100	95.1	101	90.8	108	> 10	> 10	> 10	> 10	> 10	0	0	0	0	0
CC(C)COC(=O)c1ccc(N)cc1 [isobutamben]	100	95.9	102	93.1	98.8	87.8	100	103	111	102	98.7	103	94.9	88	90.2	104	96.4	102	94.1	99.9	102	106	97.9	98.6	96.2	> 10	> 10	> 10	> 10	> 10	0	0	0.7	0	0
NNC(=O)c1ccncc1 [isoniazid]	97.4	99.4	103	91.7	97.6	110	98.7	100	99.2	99.8	107	108	100	103	93.7	101	96.6	101	96.7	102	97.8	106	97.9	97.9	98.4	> 10	> 10	> 10	> 10	> 10	0	0	0	0	0
